Data published in patent US20160367578A1, “METHODS AND COMPOSITIONS FOR ERADICATING LEUKEMIC CELLS” (priority 2013, published 2016).
Where two headings read alike, the source gives them in different places.

Tests used:
human AML cell line U937 = assay: Neutrophil differentiation (CD66b+/CD14-) by FACS in U937; type: cell-based; details: U937, 16 hours
MLL-AF9 leukemia [1] = test system: MLL-AF9 leukemia; parameters: autopsy finding: dose or concentration left out as unconfirmed
MLL-AF9 leukemia [2] = assay: MLL-AF9 leukemia in non-irradiated mice, intraperitoneal CBX with or w/o chemotherapy (survival, IVIS, flow cytometry); type: in vivo, mouse
Experimental: Chemo: cytarabine (100 mg/kg) and doxorubicin (3 mg/kg) to the subject for a period of 3 days, followed by administering cytarabine alone (100 mg/kg) to the subject for a period of 2 days.
Leukemia was induced in mice by intravenously injecting 1 million live MLL-AF9 leukemic cells (expressing GFP and luciferase) into non-irradiated recipients.
We first studied the immediate response of AML cells to induction chemotherapy in a mouse model of human MLL-AF9 leukemia. MLL-AF9 is a fusion protein, encoded by the t(9; 11)(p22; q23) translocation (Krivtsov, et al. 2006 and Sykes, et al., Cell 146, 697-708 (2011)), present in leukemic blasts derived from patients with AML and is associated with poor prognosis (Schoch, et al., Blood 102, 2395-402 (2003)). In order to generate primary MLL-AF9 leukemic cells for our experiments, we introduced the MLL-AF9 oncogene via retroviral transduction into lineage depleted bone marrow cells from B6.SJL mice, as depicted in FIG. 1A. Sorted GFP positive cells were then intravenously injected into sub-lethally irradiated C57B16 recipients and MLL-AF9 GFP-positive leukemic cells were harvested 3 months later, at a terminal stage of disease. In order to synchronize the timing of the treatment and to visualize disease progression, we transduced primary MLL-AF9 GFP-positive cells with Luciferase lentivirus. Then, we selected Luciferase expressing cells with antibiotics and transplanted 1 million double positive leukemic cells into non-irradiated recipients and monitored disease progression by whole body bioluminescence imaging (FIGS. 1A and 1B).
1 week after treatment, mice were imaged and then sacrificed to evaluate treatment outcome.

[3] = test system: human leukemic cancer stem and progenitor cells (THP1, HL60, U937); assay: Colony formation assay (CFU-C) on human leukemic cell lines; type: cell-based
MLL-AF9 cells = assay: Viability of MLL-AF9 cells exposed to CBX for 16 hours (7AAD FACS); type: cell-based, mouse; parameters: MLL-AF9 cell death: dose or concentration left out as unconfirmed
Experimental: Cells were distinguished by Cd45.1/CD45.2 expression and cell viability was determined by % of 7AAD-negative cells, in FACS analysis. (*p<0.01).
We then asked how blockage of gap junction intercellular communication affects AML cells, without additional treatment. […] In order to exclude the possibility of clone specific effects, we have repeated the experiments with a different MLL-AF9 clone, generated independently, and also included HoxA9/Meis1 AML cells that represent a different type of AML.

[4] = 75 mg/kg CBX in combination with chemotherapy

## CC1(C)[C@@H](OC(=O)CCC(=O)O)CC[C@]2(C)[C@H]3C(=O)C=C4[C@@H]5C[C@@](C)(C(=O)O)CC[C@]5(C)CC[C@@]4(C)[C@]3(C)CC[C@@H]12 [CBX, Carbenoxolone]
Human AML cell line U937
  neutrophil differentiation (CD66b+/CD14−): induces rapid (within 16 hours) neutrophil differentiation
MLL-AF9 leukemia [1]; 25 mg/kg CBX alone or in combination with induction chemotherapy
  CBX-treated mice survived: 40%-60%
MLL-AF9 leukemia [1]; 25 mg/kg CBX in combination with induction chemotherapy
  survival vs PBS and chemotherapy controls: no statistically significant difference in survival
MLL-AF9 leukemia [1]; 50 mg/kg CBX alone
  CBX-treated mice survived: 20%
  survival: early mortality with no statistically significant difference
MLL-AF9 leukemia [1]; 50 mg/kg CBX in combination with chemotherapy
  survival vs PBS and chemotherapy controls: significant increased survival
MLL-AF9 leukemia [1]; 75 mg/kg CBX alone
  survival vs PBS controls: significant increased survival
MLL-AF9 leukemia [1]; [4]
  CBX-treated mice survived: 20%
  survival: early mortality with no statistically significant difference
MLL-AF9 leukemia [1]; SC, daily, 14 days
  adverse effect of prolonged administration: lethal pseudo-hyperadlosteronism with no sign of leukemia
MLL-AF9 leukemia [1]; chemotherapy plus 50 mg/kg CBX
  autopsy, signs of leukemia: no signs of leukemia
MLL-AF9 leukemia [1]; mouse that died at day 28 after CBX treatment
  autopsy finding: gastric edema
MLL-AF9 leukemia [1]; mouse, in vivo
  adverse effect of chronic systemic exposure: acute lethal pseudo-hyperaldosteronism in some case
  early mortality: early mortality due to acute lethal pseudo-hyperadlosteronism
MLL-AF9 leukemia [1]; mouse, in vivo, sc
  cause of early mortality: most likely induced by acute pseudo-hyperaldosteronism, and not by leukemia
MLL-AF9 leukemia [1]; mouse, in vivo, sc, 50 mg/kg
  survival: prolonged survival
MLL-AF9 leukemia [1]; mouse, in vivo, sc, 75 mg/kg
  survival: prolonged survival
MLL-AF9 leukemia [2]; 25 mg/kg CBX 24 hours before and throughout 5-days induction chemotherapy
  leukemia status 1 week after treatment (luciferase imaging, flow cytometry): entirely leukemia free
MLL-AF9 leukemia [2]; Carbenoxolone 20 mg/kg in combination with chemotherapy, from Day 27
  survival: prolonged survival
MLL-AF9 leukemia [2]; Carbenoxolone alone, 20 mg/kg 3 or 6 days from Day 27, or 10/20/30 mg/kg ascending from Day 68
  survival: prolonged survival
MLL-AF9 leukemia [2]; IP, 20 mg/kg for 6 days from day 27 (with chemo arm) or 10/20/30 mg/kg ascending from day 68
  survival: prolonged survival
MLL-AF9 leukemia [2]; IP, 50 mg/kg 6 days beginning at day 27
  survival: prolonged survival
[3]; CBX 100 μM
  effect on human leukemic progenitors (CFU-C): eradicates human leukemic progenitors
[3]; increasing concentrations
  effect on human leukemic cancer stem and progenitor cells (CFU-C): eradicates human leukemic cancer stem and progenitor cells
MLL-AF9 cells; 1001 μM CBX for 16 hours, CBX alone
  cells eradicated: ~20%
MLL-AF9 cells; CBX at greater than or equal to 100 μM, 16 hours
  eradication of MLL-AF9 leukemia: eradication of MLL-AF9 leukemia
MLL-AF9 cells; CBX, 16 hours
  MLL-AF9 cell death: ~70%
MLL-AF9 cells; increasing CBX up to 400 μM, 16 hours
  eradication of MLL-AF9 cells in 1:1 mixture with normal BM leukocytes: selectively eradicates
